Laboratory results from patent US20120115845A1, “THERAPEUTIC AGENTS” (priority 2007, published 2012).

How the values were obtained:
human GHS receptor [1] = biological target: T1, human GHS receptor (Homo sapiens, UniProt Q92847); assay: h bind IC50 (binding assay, Table 1); conditions: human receptor; Table 1
human GHS receptor [2] = biological target: T1, human GHS receptor; assay: Ghrelin IP1 agonist assay (IP1 HTRF); type: cell-based; parameters: expressed in transfected cells; host or cells: HEK293s; conditions: for Emax: 2 h, agonist effect as % maximal effect of GHRP-6 (5 μM), read-out: h IP1 ag %; for EC50: HEK293s cells stably expressing human GHS receptor, 2 hours at 37° C., read-out: h IP1 ag EC50
In short: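 Cells: HEK293s stably expressing human GHS receptor, in stimulation buffer containing 0.02% fatty acid free BSA.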

T1 sequence (Q92847 whole entry): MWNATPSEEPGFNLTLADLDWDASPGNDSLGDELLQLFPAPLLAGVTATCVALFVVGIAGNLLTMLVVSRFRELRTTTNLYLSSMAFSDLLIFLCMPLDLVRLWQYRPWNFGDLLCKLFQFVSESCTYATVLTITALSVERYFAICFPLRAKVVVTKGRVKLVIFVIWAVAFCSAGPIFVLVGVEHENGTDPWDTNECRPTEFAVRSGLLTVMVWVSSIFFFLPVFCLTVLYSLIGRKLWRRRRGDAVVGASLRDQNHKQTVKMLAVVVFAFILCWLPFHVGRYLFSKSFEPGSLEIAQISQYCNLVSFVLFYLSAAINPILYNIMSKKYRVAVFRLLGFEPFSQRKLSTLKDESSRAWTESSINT

IC50 (human GHS receptor [1])	Emax (human GHS receptor [2])	EC50 (human GHS receptor [2])	SMILES
742 nM	15.1%	772 nM	CS(=O)(=O)c1ccc2nc(NC(=O)NC(=O)c3ccccc3[N+](=O)[O-])sc2c1 [Example 104, N-[(6-Methylsulfonylbenzothiazol-2-yl)carbamoyl]-2-nitro-benzamide]
215 nM	39.4%	98.6 nM	CS(=O)(=O)c1ccc2nc(NC(=O)NC(=O)c3ccccc3-c3ccccc3)sc2c1 [Example 105, N-[(6-Methylsulfonylbenzothiazol-2-yl)carbamoyl]-2-phenyl-benzamide]
216 nM	12.9%	32.8 nM	CS(=O)(=O)c1ccc2nc(NC(=O)NC(=O)c3c(F)cccc3Cl)sc2c1 [Example 106, 2-Chloro-6-fluoro-N-[(6-methylsulfonylbenzothiazol-2-yl)carbamoyl]benzamide]
306 nM	19.3%	27.6 nM	CS(=O)(=O)c1ccc2nc(NC(=O)NC(=O)c3ccc(F)cc3Cl)sc2c1 [Example 107, 2-Chloro-4-fluoro-N-[(6-methylsulfonylbenzothiazol-2-yl)carbamoyl]benzamide]
1640 nM	8.69%	24300 nM	CS(=O)(=O)c1ccc2nc(NC(=O)NC(=O)c3ccccc3F)sc2c1 [Example 108, 2-Fluoro-N-[(6-methylsulfonylbenzothiazol-2-yl)carbamoyl]benzamide]
392 nM	15.8%	91.7 nM	CS(=O)(=O)c1ccc2nc(NC(=O)NC(=O)c3cccc(F)c3Cl)sc2c1 [Example 110, 2-Chloro-3-fluoro-N-[(6-methylsulfonylbenzothiazol-2-yl)carbamoyl]benzamide]
1270 nM	14.1%	335 nM	COc1ccc(C(=O)NC(=O)Nc2nc3ccc(S(C)(=O)=O)cc3s2)c(Cl)c1OC [Example 111, 2-Chloro-3,4-dimethoxy-N-[(6-methylsulfonylbenzothiazol-2-yl)carbamoyl]benzamide]
1660 nM	10.8%	1290 nM	CS(=O)(=O)c1ccc(C(=O)NC(=O)Nc2nc3ccc(S(C)(=O)=O)cc3s2)c(Cl)c1 [Example 113, 2-Chloro-4-methylsulfonyl-N-[(6-methylsulfonylbenzothiazol-2-yl)carbamoyl]benzamide]
63.4 nM	9.95%	2030 nM	CS(=O)(=O)c1ccc2nc(NC(=O)NC(=O)c3ccc(N4CCOCC4)cc3Cl)sc2c1 [Example 115, 2-Chloro-N-[(6-methylsulfonylbenzothiazol-2-yl)carbamoyl]-4-morpholin-4-yl-benzamide]
36 nM	45.1%	400 nM	CS(=O)(=O)c1ccc2nc(NC(=O)NC(=O)c3ccc(-n4cccn4)cc3Cl)sc2c1 [Example 116, 2-Chloro-N-[(6-methylsulfonylbenzothiazol-2-yl)carbamoyl]-4-pyrazol-1-yl-benzamide]
37.8 nM	16.8%	15.9 nM	CS(=O)(=O)c1ccc2nc(NC(=O)NC(=O)c3ccc(N4CCCC4)cc3Cl)sc2c1 [Example 117, 2-Chloro-N-[(6-methylsulfonylbenzothiazol-2-yl)carbamoyl]-4-pyrrolidin-1-yl-benzamide]
464 nM	9.59%	114 nM	CS(=O)(=O)c1ccc2nc(NC(=O)NC(=O)c3ccccc3I)sc2c1 [Example 118, 2-Iodo-N-[(6-methylsulfonylbenzothiazol-2-yl)carbamoyl]benzamide]
24.3 nM	9.26%	15700 nM	Cc1ccc(C)n1-c1ccc(C(=O)NC(=O)Nc2nc3ccc(S(C)(=O)=O)cc3s2)c(Cl)c1 [Example 119, 2-Chloro-4-(2,5-dimethylpyrrol-1-yl)-N-[(6-methylsulfonylbenzothiazol-2-yl)carbamoyl]benzamide]
120 nM	31.2%	54.5 nM	COc1ccc(C(=O)NC(=O)Nc2nc3ccc(S(C)(=O)=O)cc3s2)c(-c2ccc(F)cc2)c1 [Example 123, 2-(4-Fluorophenyl)-4-methoxy-N-[(6-methylsulfonylbenzothiazol-2-yl)carbamoyl]benzamide]
135 nM	54.5%	524 nM	COc1ccc(-c2ccccc2C(=O)NC(=O)Nc2nc3ccc(S(C)(=O)=O)cc3s2)cc1 [Example 124, 2-(4-Methoxyphenyl)-N-[(6-methylsulfonylbenzothiazol-2-yl)carbamoyl]benzamide]
56.1 nM	36.6%	320 nM	CS(=O)(=O)c1ccc2nc(NC(=O)NC(=O)c3ccccc3Oc3ccccc3)sc2c1 [Example 127, N-[(6-Methylsulfonylbenzothiazol-2-yl)carbamoyl]-2-phenoxy-benzamide]
100 nM	17.3%	219 nM	Cc1ccccc1C(=O)NC(=O)Nc1nc2ccc(S(C)(=O)=O)cc2s1 [Example 128, 2-Methyl-N-[(6-methylsulfonylbenzothiazol-2-yl)carbamoyl]benzamide]
288 nM	31.1%	668 nM	CCSc1ccccc1C(=O)NC(=O)Nc1nc2ccc(S(C)(=O)=O)cc2s1 [Example 130, 2-Ethylsulfanyl-N-[(6-methylsulfonylbenzothiazol-2-yl)carbamoyl]benzamide]
229 nM	17.5%	191 nM	CS(=O)(=O)c1ccc2nc(NC(=O)NC(=O)c3ccccc3COc3ccccc3)sc2c1 [Example 131, N-[(6-Methylsulfonylbenzothiazol-2-yl)carbamoyl]-2-(phenoxymethyl)benzamide]
653 nM	15.5%	3680 nM	CSc1ccccc1C(=O)NC(=O)Nc1nc2ccc(S(C)(=O)=O)cc2s1 [Example 132, 2-Methylsulfanyl-N-[(6-methylsulfonylbenzothiazol-2-yl)carbamoyl]benzamide]
21.5 nM	41.7%	11000 nM	CS(=O)(=O)c1ccc2nc(NC(=O)NC(=O)c3ccccc3Sc3ccccc3)sc2c1 [Example 133, N-[(6-Methylsulfonylbenzothiazol-2-yl)carbamoyl]-2-phenylsulfanyl-benzamide]
218 nM	63.9%	13.3 nM	CS(=O)(=O)c1ccc2nc(NC(=O)NC(=O)c3ccccc3-n3cccc3)sc2c1 [Example 134, N-[(6-Methylsulfonylbenzothiazol-2-yl)carbamoyl]-2-pyrrol-1-yl-benzamide]
197 nM	21.5%	217 nM	CC(C)c1ccccc1C(=O)NC(=O)Nc1nc2ccc(S(C)(=O)=O)cc2s1 [Example 136, N-[(6-Methylsulfonylbenzothiazol-2-yl)carbamoyl]-2-propan-2-yl-benzamide]
1750 nM	24.1%	2320 nM	CS(=O)(=O)c1ccc2nc(NC(=O)NC(=O)c3ccccc3OS(=O)(=O)C(F)(F)F)sc2c1 [Example 137, N-[(6-Methylsulfonylbenzothiazol-2-yl)carbamoyl]-2-(trifluoromethylsulfonyloxy)benzamide]
448 nM	0%	≥ 25000 nM	CS(=O)(=O)c1ccc2nc(NC(=O)NC(=O)c3cc(S(N)(=O)=O)ccc3Cl)sc2c1 [Example 138, 2-Chloro-N-[(6-methylsulfonylbenzothiazol-2-yl)carbamoyl]-5-sulfamoyl-benzamide]
